Measured values from paper PMC10742508, “The Structure and Nucleotide-Binding Characteristics of Regulated Cystathionine β-Synthase Domain-Containing Pyrophosphatase without One Catalytic Domain” (International Journal of Molecular Sciences, 2023).

Experiments:
Type in all cases: binding
ΔdhPPase [1] = target: T1, ΔdhPPase (Desulfitobacterium hafniense, UniProt B8FP42, DEL425-544); assay: isothermal titration calorimetry, single-site model; conditions: read-out: KN
T1 construct: gene Dhaf_1515
T1 sequence (B8FP42 1-423): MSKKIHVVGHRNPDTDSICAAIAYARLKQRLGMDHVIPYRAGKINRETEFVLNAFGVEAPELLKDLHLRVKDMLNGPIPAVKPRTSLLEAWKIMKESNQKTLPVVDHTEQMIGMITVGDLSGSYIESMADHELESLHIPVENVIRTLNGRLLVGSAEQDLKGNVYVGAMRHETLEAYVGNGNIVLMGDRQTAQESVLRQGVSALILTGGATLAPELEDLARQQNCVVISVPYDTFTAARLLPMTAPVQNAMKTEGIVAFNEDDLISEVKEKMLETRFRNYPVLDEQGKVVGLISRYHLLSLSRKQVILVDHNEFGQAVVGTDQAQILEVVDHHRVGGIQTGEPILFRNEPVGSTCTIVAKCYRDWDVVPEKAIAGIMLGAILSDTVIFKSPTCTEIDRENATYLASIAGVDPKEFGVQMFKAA
Text: isothermal titration calorimetry, single-site model on ΔdhPPase

[2] = target: T2, CDC (separate regulatory part of dhPPase) (Desulfitobacterium hafniense, UniProt B8FP42); assay: ThermoFluor, SYPRO Orange; conditions: 2 mM MgCl2, 0.1 mM CoCl2, 150 mM KCl, pH 7.2
T2 construct: gene Dhaf_1515; regulatory insert only (CBS1-DRTGG-CBS2)
Text: ThermoFluor, SYPRO Orange on CDC (separate regulatory part of dhPPase)

[3] = target: T3, dhPPase (full-size CBS-PPase) (Desulfitobacterium hafniense, UniProt B8FP42); assay: isothermal titration calorimetry, single-site model; conditions: read-out: KN
T3 construct: gene Dhaf_1515
Text: isothermal titration calorimetry, single-site model on dhPPase (full-size CBS-PPase)

ΔdhPPase [4] = target: T4, ΔdhPPase (Desulfitobacterium hafniense, UniProt B8FP42); assay: ThermoFluor, SYPRO Orange; conditions: 200 µM AMP, 2 mM MgCl2, 0.1 mM CoCl2, 150 mM KCl, pH 7.2; peak II = regulatory part
T4 construct: gene Dhaf_1515
T4 sequence (B8FP42 1-423): T1 sequence (B8FP42 1-423)
Text: ThermoFluor, SYPRO Orange on ΔdhPPase

[5] = target: T3, dhPPase (full-size CBS-PPase); assay: ThermoFluor, SYPRO Orange; conditions: 200 µM AMP, 2 mM MgCl2, 0.1 mM CoCl2, 150 mM KCl, pH 7.2; peak II = regulatory part
Text: ThermoFluor, SYPRO Orange on dhPPase (full-size CBS-PPase)

T3 sequence (B8FP42 entry or part of it): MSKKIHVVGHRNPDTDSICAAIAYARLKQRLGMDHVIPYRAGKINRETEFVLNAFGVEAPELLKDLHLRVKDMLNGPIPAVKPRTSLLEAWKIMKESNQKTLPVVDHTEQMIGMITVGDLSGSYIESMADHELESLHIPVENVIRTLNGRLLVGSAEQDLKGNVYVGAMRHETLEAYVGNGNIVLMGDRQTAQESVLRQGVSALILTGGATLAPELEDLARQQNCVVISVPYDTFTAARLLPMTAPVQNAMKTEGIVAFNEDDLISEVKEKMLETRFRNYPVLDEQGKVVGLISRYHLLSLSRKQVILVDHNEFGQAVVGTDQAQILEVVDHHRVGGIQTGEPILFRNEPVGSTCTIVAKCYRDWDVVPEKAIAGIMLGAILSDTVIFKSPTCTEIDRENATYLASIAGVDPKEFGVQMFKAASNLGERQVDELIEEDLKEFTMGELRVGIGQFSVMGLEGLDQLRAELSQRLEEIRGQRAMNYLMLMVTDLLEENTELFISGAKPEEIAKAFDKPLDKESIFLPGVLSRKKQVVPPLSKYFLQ

SMILES | Kd (ΔdhPPase [1]) [nM] | Tm, °C / CDC ([2]; 20 µM Ap4A) [°C] | Kd [3] [nM] | Tm, °C / ΔdhPPase (ΔdhPPase [4]) [°C] | Tm, °C / CDC ([2]; 200 µM AMP) [°C] | Tm, °C / dhPPase [5] [°C]
Nc1ncnc2c1ncn2[C@@H]1O[C@H](COP(=O)(O)OP(=O)(O)OP(=O)(O)OP(=O)(O)OC[C@H]2O[C@@H](n3cnc4c(N)ncnc43)[C@H](O)[C@@H]2O)[C@@H](O)[C@H]1O [Ap4A] | < 10 | 61.5 | 10 to 100 | – | – | –
Nc1ncnc2c1ncn2[C@@H]1O[C@H](COP(=O)(O)O)[C@@H](O)[C@H]1O [AMP] | – | – | – | 68.6 | 66.5 | 67.4
